Test results taken from patent US4876359A, “Novel gamma-butyrolactone derivatives” (SS Pharmaceutical Co., Ltd., priority 1986, dated 1989).

target: T1, Angiotensin Converting Enzyme (ACE) (Oryctolagus cuniculus, UniProt P12822); assay: ACE inhibitory activity (Method 1, rabbit lung enzyme, hippurylglycylglycine); type: biochemical; settings: pH 8.3, 37° C., 30 minutes, hydrochlorides, read-out: ACE inhibitory activity concentration (IC50)
T1 construct: Lyophilized powder (1 g) of rabbit lungs (product of Pel-Freez Biologicals Company) was extracted; tissue Pel-Freez Biologicals Company; host or cells: rabbit lungs, lyophilized powder; 40,000 g supernatant of a phosphate buffer extract
T1 sequence (P12822 34-1310): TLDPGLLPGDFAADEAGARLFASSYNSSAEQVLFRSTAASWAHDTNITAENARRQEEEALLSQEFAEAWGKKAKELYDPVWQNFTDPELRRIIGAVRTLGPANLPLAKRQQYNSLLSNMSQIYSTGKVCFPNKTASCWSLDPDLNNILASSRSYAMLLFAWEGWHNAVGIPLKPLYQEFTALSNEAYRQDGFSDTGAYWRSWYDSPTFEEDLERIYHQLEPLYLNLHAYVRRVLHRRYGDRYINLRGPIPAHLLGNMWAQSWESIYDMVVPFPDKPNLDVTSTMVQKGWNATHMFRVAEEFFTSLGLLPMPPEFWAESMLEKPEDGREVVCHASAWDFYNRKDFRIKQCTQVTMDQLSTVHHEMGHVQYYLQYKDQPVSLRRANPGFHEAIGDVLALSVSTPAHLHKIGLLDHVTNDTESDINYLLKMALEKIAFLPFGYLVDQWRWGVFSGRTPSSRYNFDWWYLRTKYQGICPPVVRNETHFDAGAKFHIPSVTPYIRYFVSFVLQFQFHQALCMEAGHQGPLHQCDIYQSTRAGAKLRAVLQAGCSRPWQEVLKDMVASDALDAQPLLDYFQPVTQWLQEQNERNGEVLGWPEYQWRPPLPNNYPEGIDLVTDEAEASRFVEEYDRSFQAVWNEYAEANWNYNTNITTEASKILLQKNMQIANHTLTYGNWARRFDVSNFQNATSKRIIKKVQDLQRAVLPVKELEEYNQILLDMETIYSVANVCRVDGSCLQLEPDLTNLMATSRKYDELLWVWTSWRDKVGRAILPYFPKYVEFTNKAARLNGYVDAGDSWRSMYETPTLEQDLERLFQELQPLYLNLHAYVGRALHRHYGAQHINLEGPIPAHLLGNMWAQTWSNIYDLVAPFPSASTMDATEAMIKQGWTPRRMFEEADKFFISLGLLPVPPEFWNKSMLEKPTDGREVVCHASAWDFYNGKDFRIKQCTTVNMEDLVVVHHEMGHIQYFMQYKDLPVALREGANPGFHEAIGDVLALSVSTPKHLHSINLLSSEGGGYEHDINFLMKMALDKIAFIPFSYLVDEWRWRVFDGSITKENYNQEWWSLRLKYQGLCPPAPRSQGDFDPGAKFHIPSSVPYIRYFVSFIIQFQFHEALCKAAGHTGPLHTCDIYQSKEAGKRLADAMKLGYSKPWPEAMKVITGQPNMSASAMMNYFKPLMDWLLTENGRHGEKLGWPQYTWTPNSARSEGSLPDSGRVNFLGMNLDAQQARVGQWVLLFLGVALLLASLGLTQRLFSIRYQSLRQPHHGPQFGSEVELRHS
Method: (§1) The ACE inhibitory activities of the certain compounds (I) of this invention were determined by measuring their ACE activities in accordance with the method reported by Neels et al. [Clinical Chemistry, 29, 1399 (1983)].
(§2) Lyophilized powder (1 g) of rabbit lungs (product of Pel-Freez Biologicals Company) was extracted with 10 ml of a 50 mM buffer of potassium phosphate (pH 8.3) and a centrifugation supernatant (40,000 g×40 minutes) was used as an enzyme solution. Each test compound was dissolved at a concentration of 1 mg/ml in water, methanol or dimethyl sulfoxide depending on its solubility, followed by dilution with water to provide test solutions.
(§3) Added to 10 μl of each of the test solutions of various concentrations was 100 μl of a mixed reactant (pH 8.3) containing 50 mM of N-2-hydroxyethylpiperazine-N'-2-ethanesulfonic acid (HEPES), 300 mM of NaCl, 400 mM of Na2 SO4 and 30 mM of hippurylglycylglycine, followed by an addition of 10 μl of the enzyme solution to conduct a reaction at 37° C. for 30 minutes. To the reaction mixture, 100 μl of a sodium tungstate solution (100 g/l) and 100 μl of 0.33M sulfuric acid were added to terminate the reaction, followed by a further addition of 1 ml of water. The resultant mixture was centrifuged to collect 750 μl of a supernatant, to which 1 ml of a 100 mM borate buffer (pH 9.6) was added. Added further was 50 μl of a 60 mM solution of sodium 2,4,6-tri-nitrobenzenesulfonate. After warming the mixture at 37° C. for 15 minutes, its absorbance was measured at 420 nm. The inhibition rates at the various concentrations were calculated and IC50 was then determined by a method known per se in the art.

| Structure (SMILES) | IC50 [nM] |
| --- | --- |
| C[C@H](N[C@H]1CC(c2ccccc2)OC1=O)C(=O)N1CCC[C@H]1C(=O)O (stereo partly drawn) [Comparative compound, reference compound] | 14 |
| CCCCCCC1CC(N[C@@H](C)C(=O)N2CCC[C@H]2C(=O)O)C(=O)O1 (single isomer, unassigned) [Compound 14, N-(2-oxo-5-hexyl-3-tetrahydrofuranyl)-L-alanyl-L-proline] | 7 |
| CCCCCCCCC1CC(N[C@@H](C)C(=O)N2CCC[C@H]2C(=O)O)C(=O)O1 (single isomer, unassigned) [Compound 21, N-(2-oxo-5-octyl-3-tetrahydrofuranyl)-L-alanyl-L-proline] | 2.9 |
| CCCCCCCC1CC(N[C@@H](C)C(=O)N2CCC[C@H]2C(=O)O)C(=O)O1 (single isomer, unassigned) [Compound 20, N-(2-oxo-5-heptyl-3-tetrahydrofuranyl)-L-alanyl-L-proline] | 5.8 |
| CCCCCC1CC(N[C@@H](C)C(=O)N2CCC[C@H]2C(=O)O)C(=O)O1 (single isomer, unassigned) [Compound 19, N-(2-oxo-5-pentyl-3-tetrahydrofuranyl)-L-alanyl-L-proline] | 7.3 |
| CCCCCCCCCCC1CC(N[C@@H](C)C(=O)N2CCC[C@H]2C(=O)O)C(=O)O1 (single isomer, unassigned) [Compound 22, N-(2-oxo-5-decanyl-3-tetrahydrofuranyl)-L-alanyl-L-proline] | 3 |

target: T1, Angiotensin Converting Enzyme (ACE); assay: ACE inhibitory activity after incubation in rat plasma (Method 2); type: biochemical, rabbit; settings: pre-incubated in rat plasma at 37° C. for 1 hour, dihydrochlorides, read-out: ACE inhibitory activity concentration (IC50)
Method: as §1, §2, §3
Mixed to 1800 μl of rat plasma was 200 μl of each test solution, followed by incubation at 37° C. for 1 hour. The resulting mixture was then diluted with a 0.1M Tris-HCl buffer (pH 8.3). The procedure of Method 1 was thereafter followed to measure the ACE inhibitory activity.

| Structure (SMILES) | IC50 [nM] |
| --- | --- |
| CCCCCCC1CC(N[C@@H](CCCCN)C(=O)N2CCC[C@H]2C(=O)O)C(=O)O1 (single isomer, unassigned) [Compound 35, N^α -(2-oxo-5-hexyl-3-tetrahydrofuranyl)-L-lysyl-L-proline] | 4.7 |
| CCCCCC1CC(N[C@@H](CCCCN)C(=O)N2CCC[C@H]2C(=O)O)C(=O)O1 (single isomer, unassigned) [Compound 38, N^α -(2-oxo-5-pentyl-3-tetrahydrofuranyl)-L-lysyl-L-proline] | 4 |
| CCCCC1CC(N[C@@H](CCCCN)C(=O)N2CCC[C@H]2C(=O)O)C(=O)O1 (single isomer, unassigned) [Compound 37, N^α -(2-oxo-5-butyl-3-tetrahydrofuranyl)-L-lysyl-L-proline] | 5.7 |
